# In ChEMBL document CHEMBL4041536, “Design, synthesis and biological activity of novel molecules designed to target PARP and DNA” (Bioorg Med Chem Lett, 2017):
# Active and inactive are the calls of the source. No cut-off for these calls is given here.
# Columns and labels:
# Cricetulus griseus [1] = species on record: Cricetulus griseus; test: Selectivity ratio of PARP inhibition in chinese hamster VC8 cells harboring wild type BRCA2 to PARP inhibition in chinese hamster VC8 cells harboring BRCA2 mutant; type: cell-based
# Cricetulus griseus [2] = species on record: Cricetulus griseus; test: Inhibition of PARP in chinese hamster VC8 cells harboring BRCA2 mutant assessed as growth inhibition; type: cell-based
# [3] = Inhibition of PARP (unknown origin); set-up: species or system Homo sapiens
# [4] = (§1) Inhibition of PARP in chinese hamster VC8 cells harboring BRCA2 mutant; type: cell-based, Cricetulus griseus
# [5] = Inhibition of PARP in Wistar rat pancreatic islet nuclear fraction using histone H1 as substrate in presence of [14C]NAD after 10 mins by scintillation counting method
# Cricetulus griseus [6] = species on record: Cricetulus griseus; test: Induction of DNA damage in chinese hamster VC8 cells harboring BRCA2 mutant by comet assay; type: cell-based
# [7] = Drug uptake in nucleus of chinese hamster VC8 cells harboring wild type BRCA2 at 25 uM by DAPI staining based fluorescence microscopic method; type: ADME, Cricetulus griseus
# [8] = Drug uptake in nucleus of chinese hamster VC8 cells harboring BRCA2 mutant at 25 uM by DAPI staining based fluorescence microscopic method; type: ADME, Cricetulus griseus
# Cricetulus griseus [9] = species on record: Cricetulus griseus; test: as §1; type: cell-based
SMILES,Selectivity ratio (Cricetulus griseus [1]),inhibition (Cricetulus griseus [2]),other results
CN(C)/N=N/c1cccc2c(=O)[nH]ccc12,2 to 7,inactive,–
Cc1nc2ccccc2c(=O)[nH]1,–,–,IC50 [3]: 5 to 120 µM
O=c1[nH]ccc2c([N+]3=NN(CCCl)CC3)cccc12,–,–,IC50 [4]: 23.9 µM
NC(=O)c1cccc(N)c1 [3-AMINOBENZAMIDE],–,–,IC50 [5]: 5 to 120 µM
O=C1NC(=O)c2ccc(/N=N/N(CCCl)CCCl)c3cccc1c23,–,inactive,–
Nc1cccc2c(=O)[nH]ccc12,–,inactive,–
Nc1ccc2c3c(cccc13)C(=O)NC2=O,77,–,IC50 [4]: 2.59 µM
ClCCN1CC[N+](c2ccc3ncnc(Nc4cccc(Cl)c4)c3c2)=N1,–,–,IC50 [4]: 15.2 µM; Activity (Cricetulus griseus [6]): Active
CN/N=N/c1cccc2c(=O)[nH]ccc12,2 to 7,inactive,–
CN(CO)/N=N/c1ccc2c3c(cccc13)C(=O)NC2=O,2 to 7,inactive,–
CN(CO)/N=N/c1cccc2c(=O)[nH]ccc12,2 to 7,inactive,–
CN(C)/N=N/c1ccc2c3c(cccc13)C(=O)NC2=O,2 to 7,inactive,–
O=C1NC(=O)c2ccc([N+]3=NN(CCCl)CC3)c3cccc1c23.[Cl-],25,–,Drug uptake [7]: Not Active; Drug uptake [8]: Not Active; inhibition (Cricetulus griseus [9]): Dose-dependent effect; IC50 [4]: 1 to 1.7 µM; Activity (Cricetulus griseus [6]): Active
CN/N=N/c1ccc2c3c(cccc13)C(=O)NC2=O,2 to 7,inactive,–
